# Measurements reported in the NIST ThermoML archive (doi:10.1016/j.tca.2011.08.013).
# ± gives the expanded uncertainty stated by the source.
# Legend:
# [1] = Liquid; for viscosity: Capillary tube (Ostwald / Ubbelohde) method; for speed of sound: Linear variable-path acoustic interferometer; for mass density: Pycnometric method
# [2] = xn = mol fraction of the nth substance listed; settings: 101 kPa, Liquid; for viscosity: Capillary tube (Ostwald / Ubbelohde) method; for speed of sound: Linear variable-path acoustic interferometer; for mass density: Pycnometric method
# [3] = mn = molality of the nth substance listed, in mol/kg; settings: 101 kPa, Liquid; for viscosity: Capillary tube (Ostwald / Ubbelohde) method; for speed of sound: Linear variable-path acoustic interferometer; for mass density: Pycnometric method
compound,measurement,setting,value
C[S+](C)[O-] [dimethyl sulfoxide],viscosity,"[1]; 308.15 K, 101.33 kPa",1.655 ± 0.011 mPa·s
same,speed of sound,"[1]; 308.15 K, 101.33 kPa",1457.9 ± 1.7 m/s
same,mass density,"[1]; 308.15 K, 101.33 kPa",1085.9 ± 0.6 kg/m3
same,viscosity,"[1]; 318.15 K, 101.33 kPa",1.392 ± 0.009 mPa·s
same,speed of sound,"[1]; 318.15 K, 101.33 kPa",1423.4 ± 1.7 m/s
same,mass density,"[1]; 318.15 K, 101.33 kPa",1075.6 ± 0.7 kg/m3
C[S+](C)[O-] [dimethyl sulfoxide] + O,viscosity,"[2]; 303.15 K, x1 = 0.0121",0.9 ± 0.012 mPa·s
same,viscosity,"[2]; 303.15 K, x1 = 0.0255",0.979 ± 0.013 mPa·s
same,viscosity,"[2]; 303.15 K, x1 = 0.0424",1.089 ± 0.014 mPa·s
same,viscosity,"[2]; 303.15 K, x1 = 0.0583",1.224 ± 0.015 mPa·s
same,speed of sound,"[2]; 303.15 K, x1 = 0.0121",1534.6 ± 2.8 m/s
same,speed of sound,"[2]; 303.15 K, x1 = 0.0255",1556.6 ± 2.8 m/s
same,speed of sound,"[2]; 303.15 K, x1 = 0.0424",1580 ± 2.8 m/s
same,speed of sound,"[2]; 303.15 K, x1 = 0.0583",1602.7 ± 2.8 m/s
same,mass density,"[2]; 303.15 K, x1 = 0.0121",1002 ± 1.3 kg/m3
same,mass density,"[2]; 303.15 K, x1 = 0.0255",1008 ± 1.3 kg/m3
same,mass density,"[2]; 303.15 K, x1 = 0.0424",1015.3 ± 1.3 kg/m3
same,mass density,"[2]; 303.15 K, x1 = 0.0583",1021.4 ± 1.3 kg/m3
same,viscosity,"[2]; 308.15 K, x1 = 0.0121",0.805 ± 0.011 mPa·s
same,viscosity,"[2]; 308.15 K, x1 = 0.0255",0.888 ± 0.012 mPa·s
same,viscosity,"[2]; 308.15 K, x1 = 0.0424",0.988 ± 0.013 mPa·s
same,viscosity,"[2]; 308.15 K, x1 = 0.0583",1.102 ± 0.014 mPa·s
same,speed of sound,"[2]; 308.15 K, x1 = 0.0121",1541.3 ± 2.8 m/s
same,speed of sound,"[2]; 308.15 K, x1 = 0.0255",1561.7 ± 2.8 m/s
same,speed of sound,"[2]; 308.15 K, x1 = 0.0424",1583.1 ± 2.8 m/s
same,speed of sound,"[2]; 308.15 K, x1 = 0.0583",1603.5 ± 2.8 m/s
same,mass density,"[2]; 308.15 K, x1 = 0.0121",1000.3 ± 1.3 kg/m3
same,mass density,"[2]; 308.15 K, x1 = 0.0255",1006.4 ± 1.3 kg/m3
same,mass density,"[2]; 308.15 K, x1 = 0.0424",1013.6 ± 1.3 kg/m3
same,mass density,"[2]; 308.15 K, x1 = 0.0583",1019.3 ± 1.3 kg/m3
same,viscosity,"[2]; 313.15 K, x1 = 0.0121",0.729 ± 0.01 mPa·s
same,viscosity,"[2]; 313.15 K, x1 = 0.0255",0.806 ± 0.011 mPa·s
same,viscosity,"[2]; 313.15 K, x1 = 0.0424",0.887 ± 0.012 mPa·s
same,viscosity,"[2]; 313.15 K, x1 = 0.0583",1.002 ± 0.013 mPa·s
same,speed of sound,"[2]; 313.15 K, x1 = 0.0121",1546.2 ± 2.8 m/s
same,speed of sound,"[2]; 313.15 K, x1 = 0.0255",1566 ± 2.8 m/s
same,speed of sound,"[2]; 313.15 K, x1 = 0.0424",1586.1 ± 2.8 m/s
same,speed of sound,"[2]; 313.15 K, x1 = 0.0583",1604.9 ± 2.8 m/s
same,mass density,"[2]; 313.15 K, x1 = 0.0121",998.5 ± 1.3 kg/m3
same,mass density,"[2]; 313.15 K, x1 = 0.0255",1004.4 ± 1.3 kg/m3
same,mass density,"[2]; 313.15 K, x1 = 0.0424",1011.4 ± 1.3 kg/m3
same,mass density,"[2]; 313.15 K, x1 = 0.0583",1017.6 ± 1.3 kg/m3
same,viscosity,"[2]; 318.15 K, x1 = 0.0121",0.667 ± 0.009 mPa·s
same,viscosity,"[2]; 318.15 K, x1 = 0.0255",0.735 ± 0.01 mPa·s
same,viscosity,"[2]; 318.15 K, x1 = 0.0424",0.808 ± 0.011 mPa·s
same,viscosity,"[2]; 318.15 K, x1 = 0.0583",0.903 ± 0.012 mPa·s
same,speed of sound,"[2]; 318.15 K, x1 = 0.0121",1552.4 ± 2.8 m/s
same,speed of sound,"[2]; 318.15 K, x1 = 0.0255",1569.7 ± 2.8 m/s
same,speed of sound,"[2]; 318.15 K, x1 = 0.0424",1587.2 ± 2.8 m/s
same,speed of sound,"[2]; 318.15 K, x1 = 0.0583",1603.3 ± 2.8 m/s
same,mass density,"[2]; 318.15 K, x1 = 0.0121",996.2 ± 1.3 kg/m3
same,mass density,"[2]; 318.15 K, x1 = 0.0255",1002.3 ± 1.3 kg/m3
same,mass density,"[2]; 318.15 K, x1 = 0.0424",1009.3 ± 1.3 kg/m3
same,mass density,"[2]; 318.15 K, x1 = 0.0583",1015.3 ± 1.3 kg/m3
[F-].[K+] [potassium fluoride] + O,viscosity,"[3]; 303.15 K, m1 = 0.05",0.805 ± 0.011 mPa·s
same,viscosity,"[3]; 303.15 K, m1 = 0.1",0.811 ± 0.011 mPa·s
same,viscosity,"[3]; 303.15 K, m1 = 0.15",0.819 ± 0.011 mPa·s
same,viscosity,"[3]; 303.15 K, m1 = 0.2",0.827 ± 0.011 mPa·s
same,speed of sound,"[3]; 303.15 K, m1 = 0.05",1515.5 ± 2.7 m/s
same,speed of sound,"[3]; 303.15 K, m1 = 0.1",1518.9 ± 2.8 m/s
same,speed of sound,"[3]; 303.15 K, m1 = 0.15",1522.1 ± 2.8 m/s
same,speed of sound,"[3]; 303.15 K, m1 = 0.2",1525.8 ± 2.8 m/s
same,mass density,"[3]; 303.15 K, m1 = 0.05",998.2 ± 1.3 kg/m3
same,mass density,"[3]; 303.15 K, m1 = 0.1",1000.4 ± 1.3 kg/m3
same,mass density,"[3]; 303.15 K, m1 = 0.15",1002.6 ± 1.3 kg/m3
same,mass density,"[3]; 303.15 K, m1 = 0.2",1004.7 ± 1.3 kg/m3
same,viscosity,"[3]; 308.15 K, m1 = 0.05",0.726 ± 0.01 mPa·s
same,viscosity,"[3]; 308.15 K, m1 = 0.1",0.734 ± 0.01 mPa·s
same,viscosity,"[3]; 308.15 K, m1 = 0.15",0.741 ± 0.01 mPa·s
same,viscosity,"[3]; 308.15 K, m1 = 0.2",0.745 ± 0.01 mPa·s
same,speed of sound,"[3]; 308.15 K, m1 = 0.05",1524 ± 2.8 m/s
same,speed of sound,"[3]; 308.15 K, m1 = 0.1",1526.9 ± 2.8 m/s
same,speed of sound,"[3]; 308.15 K, m1 = 0.15",1530.5 ± 2.8 m/s
same,speed of sound,"[3]; 308.15 K, m1 = 0.2",1534 ± 2.8 m/s
same,mass density,"[3]; 308.15 K, m1 = 0.05",996.6 ± 1.3 kg/m3
same,mass density,"[3]; 308.15 K, m1 = 0.1",998.8 ± 1.3 kg/m3
same,mass density,"[3]; 308.15 K, m1 = 0.15",1001 ± 1.3 kg/m3
same,mass density,"[3]; 308.15 K, m1 = 0.2",1003.2 ± 1.3 kg/m3
same,viscosity,"[3]; 313.15 K, m1 = 0.05",0.66 ± 0.009 mPa·s
same,viscosity,"[3]; 313.15 K, m1 = 0.1",0.668 ± 0.009 mPa·s
same,viscosity,"[3]; 313.15 K, m1 = 0.15",0.672 ± 0.009 mPa·s
same,viscosity,"[3]; 313.15 K, m1 = 0.2",0.679 ± 0.009 mPa·s
same,speed of sound,"[3]; 313.15 K, m1 = 0.05",1531.4 ± 2.8 m/s
same,speed of sound,"[3]; 313.15 K, m1 = 0.1",1536.1 ± 2.8 m/s
same,speed of sound,"[3]; 313.15 K, m1 = 0.15",1538.6 ± 2.8 m/s
same,speed of sound,"[3]; 313.15 K, m1 = 0.2",1542.4 ± 2.8 m/s
same,mass density,"[3]; 313.15 K, m1 = 0.05",994.7 ± 1.3 kg/m3
same,mass density,"[3]; 313.15 K, m1 = 0.1",997 ± 1.3 kg/m3
same,mass density,"[3]; 313.15 K, m1 = 0.15",999.1 ± 1.3 kg/m3
same,mass density,"[3]; 313.15 K, m1 = 0.2",1001.2 ± 1.3 kg/m3
same,viscosity,"[3]; 318.15 K, m1 = 0.05",0.604 ± 0.009 mPa·s
same,viscosity,"[3]; 318.15 K, m1 = 0.1",0.612 ± 0.009 mPa·s
same,viscosity,"[3]; 318.15 K, m1 = 0.15",0.615 ± 0.009 mPa·s
same,viscosity,"[3]; 318.15 K, m1 = 0.2",0.622 ± 0.009 mPa·s
same,speed of sound,"[3]; 318.15 K, m1 = 0.05",1538.6 ± 2.8 m/s
same,speed of sound,"[3]; 318.15 K, m1 = 0.1",1543.4 ± 2.8 m/s
same,speed of sound,"[3]; 318.15 K, m1 = 0.15",1546.2 ± 2.8 m/s
same,speed of sound,"[3]; 318.15 K, m1 = 0.2",1549.4 ± 2.8 m/s
same,mass density,"[3]; 318.15 K, m1 = 0.05",992.7 ± 1.3 kg/m3
same,mass density,"[3]; 318.15 K, m1 = 0.1",994.8 ± 1.3 kg/m3
same,mass density,"[3]; 318.15 K, m1 = 0.15",997 ± 1.3 kg/m3
same,mass density,"[3]; 318.15 K, m1 = 0.2",999.2 ± 1.3 kg/m3
O [water],viscosity,"[1]; 303.15 K, 101 kPa",0.797 ± 0.011 mPa·s
same,speed of sound,"[1]; 303.15 K, 101 kPa",1512 ± 2.7 m/s
same,viscosity,"[1]; 308.15 K, 101 kPa",0.719 ± 0.01 mPa·s
same,viscosity,"[1]; 313.15 K, 101 kPa",0.653 ± 0.009 mPa·s
same,speed of sound,"[1]; 313.15 K, 101 kPa",1528 ± 2.8 m/s
same,viscosity,"[1]; 318.15 K, 101 kPa",0.597 ± 0.008 mPa·s
same,speed of sound,"[1]; 318.15 K, 101 kPa",1535.2 ± 2.8 m/s
